For data set [1] the following is noted: in cell culture; previous studies of the inventors; cited from earlier work.
Data set [2] has as its system panel of 7 tumor cell lines and human normal lung fibroblasts. As to conditions: previous studies of the inventors, cited from earlier work.
For data set [3] the following is noted: literature [4]; cited from earlier work.
The subject of the next data set is several tumor cell lines. As to conditions: literature [2], cited from earlier work.
For the next data set, the system named is osteoclastgenesis. The conditions noted are these: literature [2]; cited from earlier work.
The test system of data set [4] is lung cancer cells (LLC-1). Briefly: MTT cytotoxicity assay in LLC-1 cells. The format is cell-based, mouse. On the procedure: (§1) The novel compound was dissolved in DMSO at final concentration of 100 mmol/L and stored at −20° C. Cytotoxicity was assessed using the 3-(4,5-dimethylthiazol-2-yl)-2,5-diphenyltetrazolium bromide assay as described previously. Several kinds of cells were seeded on 96-well plates, namely MCF-7, 4000 cells; HepG2, 4000 cells; HeLa, 3000 cells; A549, 4000 cells; LLC-1, 3000 cells; H1299, 3000 cells; CCD19Lu, 4000 cells per well. After overnight pre-incubation, the cells were exposed to different concentrations of the novel compound (0.039-100 μmol/L) or control compounds 20(S)-Rh2 and 20(R)-Rh2 for 3 days. Subsequently, 10 μL of MTT reagents was added to each well and incubated at 37° C. for 4 hours followed by the addition of 100 μL solubilization buffer (10% SDS in 0.01 mol/L HCl) and overnight incubation. A585 nm was determined from each well the next day. The percentage of viable cells was calculated using the following formula: Cell viability (%)=Atreated/Acontrol×100. Data was obtained from three independent experiments.

The subject of data set [5] is human normal lung fibroblasts CCD19Lu. Briefly: MTT cytotoxicity assay in CCD19Lu cells. The format is cell-based. On the procedure:
as §1
On the technique in general: Formazan colour is commonly taken as a measure of viable cells.

A short description of data set [6]: Sub-chronic lethal dose study, 7-day repeated oral dosing. As to conditions: 160 and 320 mg/kg/day oral, 7-day treatment. Type of data set: in vivo, male C57BL/6J mice. On the procedure:
10 male C57BL/6J mice were divided into two treatment groups, i.e. 160 mg/kg/day and 320 mg/kg/day. The novel compound powder was dissolved with PEG400:ethanol:distilled water in a ratio of 60%:10%:30% (v/v/v), and orally administrated to mice by gavage feeding at doses of 160 and 320 mg/kg/day for 7 consecutive days. The health condition of the animals was monitored and their body weights were recorded during this 7 days treatment duration.

Data set [7] deals with other five cancer cell lines (MCF-7, HepG2, HeLa, A549, H1299). Type of data set: cell-based. On the procedure: as §1
Data set [8] can be described thus: Acute oral toxicity, OECD Test Guideline 423, 14-day. Type of data set: in vivo, C57BL/6J mice. On the procedure:
The acute oral toxicity of the novel compound was evaluated in line with the Organization for Economic Cooperation and Development (OECD) Guideline for Testing Chemicals—Acute Oral Toxicity—Acute Toxic Class Method (Test Guideline 423, Adopted on 17 Dec. 2001). Based on the result of Example 4, the Test Procedure with a Starting Dose of 2000 mg/kg (Annex 2d of OECD 423) was selected to evaluate the acute toxicity of the novel compound. In the test, 3 female and 3 male C57BL/6J mice (SPF grade) were fasted overnight and then orally administrated by gavage feeding with single dose of the novel compound solution at 2000 mg/kg.

Data set [9] is described as follows: MTT cytotoxicity assay in CCD19Lu cells. Type of data set: cell-based, human. As to conditions: human. On the procedure:
as §1

The test system of the next data set is LLC-1 tumor. Type of data set: in vivo, male C57BL/6J mice. The conditions noted are these: for suppression on the tumor growth: 21-day treatment, vs vehicle. On the procedure: The LLC-1 cells harvested from in vitro culture were adjusted to a concentration of 1.5×10^7/mL and 0.1 mL cell suspension was injected subcutaneously into the dorsal region of the male C57BL/6J mice. Subsequently, when 70% of mice had developed tumor into a volume (length×width^2×0.52) larger than 50 mm^3, the animals were randomly divided into the vehicle control and several treatment groups. The novel compound powder was dissolved with PEG400:ethanol:distilled water in a ratio of 60%:10%:30% (v/v/v), and orally administrated to mice by gavage feeding at doses of 10, 20, 40 and 80 mg/kg/day for 21 consecutive days. Oral administration of 80 mg/kg/day 20(R)-Rh2, 20(S)-Rh2 and 20(S)-Rg3, and 10 mg/kg/day 5-Fu were designed as control groups. In order to make sure all groups were appropriately blended, all the experimental procedures such as subcutaneous tumor cells injection, treatment and tumor size measurement were performed by three individual persons who were blended for animal group identity.

In general, pIC50 refers to −log10 of the IC50, conventionally taken in molar units. A word on the LD50: it is the dose expected to kill half of the subjects tested. Usually IC50 stands for the midpoint of a concentration-inhibition curve. Low readings indicate inhibition by little substance, high ones a need for much substance.

Each structure is given as a SMILES string. pIC50: −log10 of the molar value. Read-outs that look alike come from different tables or passages of the source.

`CC(C)=CCC[C@@](C)(O)[C@H]1CC[C@]2(C)[C@@H]1[C@H](O)C[C@@H]1[C@@]3(C)CC[C@H](O[C@@H]4O[C@H](CO)[C@@H](O)[C@H](O)[C@H]4O)C(C)(C)[C@@H]3CC[C@]12C` [20(R)-Rh2, 20(R)-ginsenoside Rh2]: in data set [1], the “solubility (in words)” value is recorded as “poor solubility”. Further, the “concentration up to which no cytotoxic effect” value in data set [2] (in cell culture) was more than 100 µM. Moreover, in [3], the “intestinal absorption (in words)” value is “lower absorption profiles”. In addition, the “cell cytotoxicity (in words)” value in the data set with several tumor cell lines was “without any cell cytotoxicity”. The “osteoclastgenesis inhibition (in words)” value in the data set on osteoclastgenesis is “selective osteoclastgenesis inhibitor”. Also, the “cytotoxicity (in words)” value in [4] (LLC-1 cells, MTT, 3 days exposure) is recorded as “no cytotoxicity”; in [5] (CCD19Lu cells, MTT, 3 days exposure) it was “no cytotoxicity”.

For `CC(C)=CCC[C@](C)(O)[C@H]1CC[C@]2(C)[C@@H]1[C@H](O)C[C@@H]1[C@@]3(C)CC[C@H](O[C@@H]4O[C@H](CO)[C@@H](O)[C@H](O)[C@H]4O)C(C)(C)[C@@H]3CC[C@]12C` [20(S)-Rh2], the pIC50 was 4.19 to 4.35 in data set [2] (panel of 7 tumor cell lines and human normal lung fibroblasts, read-out: cytotoxicity, IC50); 4.30 to 4.66 with several tumor cell lines (several tumor cell lines, read-out: cytotoxicity, IC50); 4.33 in data set [4]; 4.09 in data set [5].

As to `CC(C)=CCC[C@](C)(O)[C@H]1CC[C@]2(C)[C@@H]1[C@H](O)C[C@@H]1[C@@]3(C)CC[C@H](O[C@@H]4O[C@H](CO)[C@@H](O)[C@H](O)[C@H]4O)C(C)(C)[C@@H]3CC[C@]12C` [Rh2, Ginsenoside Rh2], in data set [3], the “intestinal absorption (in words)” value is listed as “poor intestinal absorption” and the “permeability (in words)” value is on record as “poor permeability”.

`CC(C)(O)C1CC[C@](C)(C2CC[C@]3(C)C2[C@H](O)CC2[C@@]4(C)CC[C@H](O[C@@H]5OC(CO)[C@@H](O)C(O)C5O)C(C)(C)C4CC[C@]23C)O1` (stereo partly drawn) [novel compound] returned an animal survival in data set [6] of 100%. The body weight entry in [6] is given as “no significant drop of body weight”. Moreover, in data set [7], the “cytotoxic potency (in words)” value was “dose-dependent cytotoxic potency”. Moreover, the negative logarithm of the IC50 (pIC50) in [4] (Mus musculus, LLC1, 72 h, read-out: cytotoxic effect, IC50) is 4.25. Also, in data set [8] (acute oral toxicity, OECD Test Guideline 423), the “Globally Harmonized Classification System (GHS) class” value was “Class 5 or unclassified”. For the same compound, the LD50 at 14 days in data set [8] (both sexes, C57BL/6J, mouse, in vivo, 2000 mg/kg, oral, mice, estimated per OECD Test Guideline 423 criteria) is more than 5000 mg/kg. For the same compound, the “body weight and sign of toxicity” value in [8] (single oral dose 2000 mg/kg, 14 days) is “no significant drop of body weight and sign of toxicity”. Moreover, the animal death entry in data set [8] (single oral dose 2000 mg/kg, 14 days, both gender) is given as “zero animal death”. The same compound had an IC50 at 3 days in data set [9] of more than 100 µM. Further, the “suppression on the tumor growth” value with LLC-1 tumor (10 mg/kg/day oral, P>0.05) came out at 35.24%; in the data set with LLC-1 tumor (20 mg/kg/day oral, P>0.05) it was 40.49%; in the data set on LLC-1 tumor (40 mg/kg/day oral, P<0.05), 44.9%; in the data set on LLC-1 tumor (80 mg/kg/day oral, P<0.01), 52.04%. The “adverse impacts on the major organs and body weight” value in the data set with LLC-1 tumor (mouse, in vivo, po) was “without observable adverse impacts”.
